According to patent US8362235B2, “Carboxamide compounds and methods for using the same” (Rigel Pharmaceuticals, Inc., priority 2009, dated 2013):
pEC50: −log10 of the molar value.

Molecular target: AMPK
Experiment: AMPK activation, enzyme-linked immunosorbent assay
Conditions: ELISA
Procedure: Compounds 1-8 were assayed for their ability to activate AMPK using an enzyme-linked immunosorbent assay.

| pEC50 | Structure (SMILES) |
| --- | --- |
| > 6.30 | N#Cc1ccc(CN2CCC(NC(=O)c3ccc(C(=O)N4CCN(Cc5ccc(F)cc5)CC4)cn3)CC2)cc1 [Compound 2, N-(1-(4-cyanobenzyl)piperidin-4-yl)-5-(4-(4-fluorobenzyl)piperazine-1-carbonyl)picolinamide] |
| > 6.30 | N#Cc1ccc(CN2CCC(NC(=O)c3ccc(C(=O)N4CCN(Cc5ccc(C(F)(F)F)cc5)CC4)cn3)CC2)cc1 [Compound 3, N-(1-(4-cyanobenzyl)piperidin-4-yl)-5-(4-(4-(trifluoromethyl)benzyl)piperazine-1-carbonyl)picolinamide] |
| 6.00 to 6.30 | N#Cc1ccc(CN2CC[C@H](NC(=O)c3ccc(C(=O)N4CCN(c5ccc(Cl)cc5)CC4)cn3)C2)cc1 [Compound 6, (S)-5-(4-(4-chlorophenyl)piperazine-1-carbonyl)-N-(1-(4-cyanobenzyl)pyrrolidin-3-yl)picolinamide] |
| 5.30 to 6.00 | O=C(NC1CCN(Cc2ccc(C(F)(F)F)cc2)C1)c1ccc(C(=O)N2CCN(c3ccc(Cl)cc3)CC2)cn1 (stereo not shown) [Compound 8, 5-(4-(4-chlorophenyl)piperazine-1-carbonyl)-N-(1-(4-(trifluoromethyl)benzyl)pyrrolidin-3-yl)picolinamide] |
